Patent US9546157B2, “Asymmetric piperidinyl-substituted ureas as medicines” (Helsinn Healthcare SA, priority 2014, dated 2017)

How the values were obtained:
GHSR1a [1] = biological target: T1, GHSR1a (Homo sapiens, UniProt Q92847); assay: Calcium FLIPR assay, GHSR-1a antagonism (reduction of ghrelin response); assay type: cell-based; details: HEK293/GHSR1a cells, ghrelin 10 nM
T1 construct: expressed in transfected cells; host or cells: HEK293
Procedure: (§1) The intracellular calcium assay was carried out in a 384-well format FLIPR™ (Molecular Device) HEK293/GHSR1a cell line. Cells were seeded 24 hr prior to the experiments at an optimal density per well. Preincubation with selected calcium dye lasted for 30-60 min at room temperature or 37° C. Test compounds, dissolved in DMSO, were added at the appropriate time and incubated for 15 min followed by the addition of ghrelin with FlexStation or FLIPR. Relative fluorescence was monitored by the FLIPR™ Molecular Device. EC50 and IC50 values were estimated from dose-response data using GraphPad Prism software. To check for GHSR-1a agonism the compound was added at t=20 sec. and the calcium response was followed for 2 minutes. To check for GHSR-1a antagonism the compound and Ghrelin (10 nM) were added to the cells at t=20 sec. and the calcium response was measured for 2 minutes. The potency of the antagonist was calculated by its ability to reduce the ghrelin response. Dose-response curves were made for relevant antagonists.

GHSR1a [2] = biological target: T1, GHSR1a; assay: Calcium FLIPR assay, GHSR-1a agonism; assay type: cell-based; design: Emax: unit not given here; details: HEK293/GHSR1a cells
Procedure: as §1

T1 sequence (Q92847 whole entry): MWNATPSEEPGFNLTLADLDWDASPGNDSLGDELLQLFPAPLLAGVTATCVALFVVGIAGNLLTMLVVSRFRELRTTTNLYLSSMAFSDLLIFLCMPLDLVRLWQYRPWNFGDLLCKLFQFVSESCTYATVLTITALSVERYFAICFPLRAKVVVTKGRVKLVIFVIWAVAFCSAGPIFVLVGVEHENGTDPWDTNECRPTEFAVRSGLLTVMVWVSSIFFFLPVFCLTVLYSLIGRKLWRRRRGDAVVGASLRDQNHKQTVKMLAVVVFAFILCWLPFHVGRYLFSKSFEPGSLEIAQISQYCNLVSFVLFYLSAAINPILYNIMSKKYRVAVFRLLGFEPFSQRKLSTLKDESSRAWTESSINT

| SMILES | IC50 (GHSR1a [1]) [nM] | EC50 (GHSR1a [2]) [nM] | Emax (GHSR1a [2]) |
| --- | --- | --- | --- |
| CC(NC(=O)N(C)C1CCN(C)CC1)c1ccc(-c2ccoc2)c2ccccc12 (stereo not drawn) [Compound H0598, 3-(1-(4-(furan-3-yl)naphthalen-1-yl)ethyl)-1-methyl-1-(1-methylpiperidin-\4-yl)urea] | 63 | 271 | – |
| COC(=O)/C=C/c1ccc(C(C)NC(=O)N(C)C2CCN(C)CC2)c(Cl)c1Cl (stereo not drawn) [Compound H0641, methyl (E)-3-(2,3-dichloro-4-(1-(3-methyl-3-(1-methylpiperidin-4-yl)ureido)ethyl)phenyl)acrylate] | 18 | 35 | 1690 |
| CC(NC(=O)N(C)C1CCN(C)CC1)c1ccc(-c2cccc(C(N)=O)c2)c(Cl)c1Cl (stereo not drawn) [Compound H0612, 2′,3′-dichloro-4′-(1-(3-methyl-3-(1-methylpiperidin-4-yl)ureido)ethyl)-[1,1′-biphenyl]-3-carboxamide] | 1600 | > 30000 | – |
| CC(NC(=O)N(C)C1CCN(C)CC1)c1ccc(-c2ccc(C3CC3)nc2)c(Cl)c1Cl (stereo not drawn) [Compound H0820, 3-(1-(2,3-dichloro-4-(6-cyclopropylpyridin-3-yl)phenyl)ethyl)-1-methyl-1-(1-methylpiperidin-4-yl)urea] | 5.7 | 9 | 3955 |
| CC(NC(=O)N(C)C1CCN(C)CC1)c1ccc(C#N)c(Cl)c1Cl (stereo not drawn) [Compound H0523, 3-(1-(2,3-dichloro-4-cyanophenyl)ethyl)-1-methyl-1-(1-methylpiperidin-4-yl)urea] | 668 | > 30000 | – |
| CC(NC(=O)N(C)C1CCN(C)CC1)c1cnc(C#CC2CC2)c(Cl)c1Cl (stereo not drawn) [Compound H0884, 3-(1-(4,5-dichloro-6-(cyclopropylethynyl)pyridin-3-yl)ethyl)-1-methyl-1-(1-methylpiperidin-4-yl)urea] | 197 | > 30000 | – |
| CC(NC(=O)N(C)C1CCN(C)CC1)c1ccc(-c2sccc2CO)c(Cl)c1Cl (stereo not drawn) [Compound H0664, 3-(1-(2,3-dichloro-4-(3-(hydroxymethyl)thiophen-2-yl)phenyl)ethyl)-1-methyl-1-(1-methylpiperidin-4-yl)urea] | 261 | > 30000 | – |
| CCCN(C(=O)NC(C)c1ccc(-c2cnccn2)c(Cl)c1Cl)C1CCN(C)CC1 (stereo not drawn) [Compound H0827, 3-(1-(2,3-dichloro-4-(pyrazin-2-yl)phenyl)ethyl)-1-(1-methylpiperidin-4-yl)-1-propylurea] | 35 | > 30000 | – |
| COC(=O)C(NC(=O)N(C)C1CCN(C)CC1)c1ccc(-c2cccs2)c(Cl)c1Cl (stereo not drawn) [Compound H0660, methyl 2-(2,3-dichloro-4-(thiophen-2-yl)phenyl)-2-(3-methyl-3-(1-methylpiperidin-4-yl)ureido)acetate] | 69 | 180 | 2100 |
| Cc1nccnc1-c1ccc(C(CC2CC2)NC(=O)N(C)C2CCN(C)CC2)c(Cl)c1Cl (stereo not drawn) [Compound H0844, 3-(2-cyclopropyl-1-(2,3-dichloro-4-(3-methylpyrazin-2-yl)phenyl)ethyl)-1-methyl-1-(1-methylpiperidin-4-yl)urea] | 705 | > 30000 | – |
| CCc1cncc(-c2ccc(C(C)NC(=O)N(C)C3CCN(C)CC3)c(Cl)c2Cl)c1 (stereo not drawn) [Compound H0715, 3-(1-(2,3-dichloro-4-(5-ethylpyridin-3-yl)phenyl)ethyl)-1-methyl-1-(1-methylpiperidin-4-yl)urea] | 57 | 42 | 2479 |
| CON(C(=O)NC(C#N)c1ccc(-c2cncnc2)c(Cl)c1Cl)C1CCN(C)CC1 (stereo not drawn) [Compound H0709] | 676 | > 30000 | – |
| CC(NC(=O)N(C)C1CCN(C)CC1)c1ccc(-c2nc(C3CC3)no2)c(Cl)c1Cl (stereo not drawn) [Compound H0851, 3-(1-(2,3-dichloro-4-(3-cyclopropyl-1,2,4-oxadiazol-5-yl)phenyl)ethyl)-1-methyl-1-(1-methylpiperidin-4-yl)urea] | 11 | 6 | 3320 |
| C#Cc1ccc(C(C)NC(=O)N(OC)C2CCN(C)CC2)c(Cl)c1Cl (stereo not drawn) [Compound H0742, 3-(1-(2,3-dichloro-4-ethynylphenyl)ethyl)-1-methoxy-1-(1-methylpiperidin-4-yl)urea] | 54 | > 30000 | – |
| CC(NC(=O)N(C)C1CCN(C)CC1)c1ccc(OC2CC2)c(Cl)c1Cl (stereo not drawn) [Compound H0875, 3-(1-(2,3-dichloro-4-cyclopropoxyphenyl)ethyl)-1-methyl-1-(1-methylpiperidin-4-yl)urea] | 91 | 50 | 3751 |
| CCOC(C#Cc1ccc(C(C)NC(=O)N(C)C2CCN(C)CC2)c(Cl)c1Cl)OCC (stereo not drawn) [Compound H0757, 3-(1-(2,3-dichloro-4-(3,3-diethoxyprop-1-yn-1-yl)phenyl)ethyl)-1-methyl-1-(1-methylpiperidin-4-yl)urea] | 159 | 654 | 2704 |

| SMILES | IC50 (GHSR1a [1]) [nM] | EC50 (GHSR1a [2]) [nM] | Emax (GHSR1a [2]) |
| --- | --- | --- | --- |
| CC(NC(=O)N(C)C1CCN(C)CC1)c1ccc(-c2cncc(Cl)n2)c(Cl)c1Cl (stereo not drawn) [Compound H0791, 3-(1-(2,3-dichloro-4-(6-chloropyrazin-2-yl)phenyl)ethyl)-1-methyl-1-(1-methylpiperidin-4-yl)urea] | 75 | > 30000 | – |
| CC(NC(=O)N(C)C1CCN(C)CC1)c1ccc(-c2ccncn2)c(Cl)c1Cl (stereo not drawn) [Compound H0768, 3-(1-(2,3-dichloro-4-(pyrimidin-4-yl)phenyl)ethyl)-1-methyl-1-(1-methylpiperidin-4-yl)urea] | 279 | > 30000 | – |
| CC(NC(=O)N(C)C1CCN(C)CC1)c1ccc(-c2cnc(N3CCCC3)nc2)c(Cl)c1Cl (stereo not drawn) [Compound H0813] | 644 | 528 | 1605 |
| CN1CCC(N(C)C(=O)NC2(c3ccc(-c4cccs4)c(Cl)c3Cl)CC2)CC1 [Compound H0672, 3-(1-(2,3-dichloro-4-(thiophen-2-yl)phenyl)cyclopropyl)-1-methyl-1-(1-methylpiperidin-4-yl)urea] | > 1 | > 30000 | – |
| CC(NC(=O)N(C)C1CCN(C)CC1)c1ccc(-c2ccc(C=O)s2)c(Cl)c1Cl (stereo not drawn) [Compound H0652, 3-(1-(2,3-dichloro-4-(5-formylthiophen-2-yl)phenyl)ethyl)-1-methyl-1-(1-methylpiperidin-4-yl)urea] | 7 | 5 | 1500 |
| CC(NC(=O)N(C)C1CCN(C)CC1)c1ccc(-c2ccc(C3CC3)cn2)c(Cl)c1Cl (stereo not drawn) [Compound H0849, 3-(1-(2,3-dichloro-4-(5-cyclopropylpyridin-2-yl)phenyl)ethyl)-1-methyl-1-(1-methylpiperidin-4-yl)urea] | 37 | 51 | 1383 |
| CC(NC(=O)N(C)C1CCN(C)CC1)c1ccc(-c2cncc(CF)c2)c(Cl)c1Cl (stereo not drawn) [Compound H0638, 3-(1-(2,3-dichloro-4-(5-(fluoromethyl)pyridin-3-yl)phenyl)ethyl)-1-methyl-1-(1-methylpiperidin-4-yl)urea] | 57 | > 30000 | – |
| CC(NC(=O)N(C)C1CCN(C)CC1)c1ccc(-c2cncc(-c3ccsc3)c2)c(Cl)c1Cl (stereo not drawn) [Compound H0747, 3-(1-(2,3-dichloro-4-(5-(thiophen-3-yl)pyridin-3-yl)phenyl)ethyl)-1-methyl-1-(1-methylpiperidin-4-yl)urea] | 84 | > 30000 | – |
| CC(NC(=O)N(C)C1CCN(C)CC1)c1ccc(-c2ccccn2)c(Cl)c1Cl (stereo not drawn) [Compound H0650, 3-(1-(2,3-dichloro-4-(pyridin-2-yl)phenyl)ethyl)-1-methyl-1-(1-methylpiperidin-4-yl)urea] | 4 | 9 | 2150 |
| CON(C(=O)NC(C)c1ccc(-c2cnccn2)c(Cl)c1Cl)C1CCN(C)CC1 (stereo not drawn) [Compound H0743, 3-(1-(2,3-dichloro-4-(pyrazin-2-yl)phenyl)ethyl)-1-methoxy-1-(1-methylpiperidin-4-yl)urea] | 94 | > 30000 | – |
| CC(NC(=O)N(C)C1CCN(C)CC1)c1ccc(-c2cncc(C3CCCC3)c2)c(Cl)c1Cl (stereo not drawn) [Compound H0718, 3-(1-(2,3-dichloro-4-(5-cyclopentylpyridin-3-yl)phenyl)ethyl)-1-methyl-1-(1-methylpiperidin-4-yl)urea] | 499 | > 30000 | – |
| CC(C)Oc1ccc(-c2ccc(C(C)NC(=O)N(C)C3CCN(C)CC3)c(Cl)c2Cl)cn1 (stereo not drawn) [Compound H0608, 3-(1-(2,3-dichloro-4-(6-isopropoxypyridin-3-yl)phenyl)ethyl)-1-methyl-1-(1-methylpiperidin-4-yl)urea] | 69 | 422 | – |
| CNc1ncc(-c2ccc(C(C)NC(=O)N(C)C3CCN(C)CC3)c(Cl)c2Cl)cn1 (stereo not drawn) [Compound H0806, 3-(1-(2,3-dichloro-4-(2-(methylamino)pyrimidin-5-yl)phenyl)ethyl)-1-methyl-1-(1-methylpiperidin-4-yl)urea] | 1.2 | 6.8 | 5751 |
| CCC(NC(=O)N(C)C1CCN(C)C1)c1ccc(-c2cncc(F)n2)c(Cl)c1Cl (stereo not drawn) [Compound H0864, 3-(1-(2,3-dichloro-4-(6-fluoropyrazin-2-yl)phenyl)propyl)-1-methyl-1-(1-methylpyrrolidin-3-yl)urea] | 718 | > 30000 | – |
| COc1ccc(C(C#N)NC(=O)N(C)C2CCN(C)CC2)c(Cl)c1Br (stereo not drawn) [Compound H0658, 3-((3-bromo-2-chloro-4-methoxyphenyl)(cyano)methyl)-1-methyl-1-(1-methylpiperidin-4-yl)urea] | 6 | 9 | 2400 |
